Reference: US20230398115A1, “MDM2 INHIBITORS AND COMBINATIONS THEREOF” (Novartis AG, priority 2015, published 2023)

What was measured:
LS-180 [1] = assay: Cell proliferation, cell count by microscopy, HSA synergy (Examples 2-9); type: cell-based; details: 72 h, cell count relative to DMSO
Description: (§1) After 24 h one 384-well plate per cell line was prepared for cell counting by microscopy (see below) without receiving treatment (=‘baseline’). The other cell plates were treated by transferring 25 nl of the 2000× compound from drug master plates using an ATS acoustic liquid dispenser (ECD Biosystems) and resulting in a final 1× concentration. COMPOUND A was used over a final concentration range of 13 nM-10 µM, COMPOUND B was used over a final concentration range of 13 nM-10 uM, and COMPOUND C was used over a final concentration range of 0.4 nM-0.3 µM (7 1:3 dilution steps). In order to assess the effect of the triple combination all individual COMPOUNDS (A, B, C), all three pair wise combinations (A+B, A+C, B+C), and the triple combination (A+B+C) were tested in the same experiment. Pair wise combinations and the triple combination were tested at a fixed ratio of 1:1 (for drug pairs) and 1:1:1 (for the drug triple) at each dilution resulting in 7 combination conditions per treatment. […] After compound addition 50 nl of 2 mM CellEvent Caspase-3/7 Green Detection Reagent (ThermoFisher, Catalog number C10423) were added to one of the three replicates using the HP D300 Digital Dispenser (Tecan). Caspase 3/7 induction was measured as a proxy for apoptosis induced by the treatments. Cells were treated for 72 h to 96 h depending on their doubling time (Table 4), and Caspase 3/7 activation was measured every 24 h by microscopy using an InCell Analyzer 2000 (GE Healthcare) equipped with a 4× objective and FITC excitation/emission filters. At the end of the treatment cells were prepared for cell counting by microscopy. Cells were fixed and permeabilised for 45 minutes in 4% PFA (Electron Microscopy Sciences, Catalog number 15714), 0.12% TX-100 (Electron Microscopy Sciences, Catalog number 22140) in PBS (Boston Bioproducts, Catalog number BM-220). After washing cells three times with PBS their DNA was stained for 30 minutes with Hoechst 33342 (ThermoFisher, Catalog number H3570) at a final concentration of 4 μg/ml. Cells were washed three times with PBS and then plates were heat-sealed using a PlateLoc (Agilent Technologies) with aluminum seals (Agilent Technologies, Catalog number 06644-001) and stored at 4° C. until imaging. All cells per well/treatment were captured in a single image by fluorescence microscopy using an InCell Analyzer 2000 (GE Healthcare) equipped with a 4× objective and DAPI excitation/emission filters.
(§2) Images were analyzed after adapting previously described methods (Horn, Sandmann et al. 2011) and using the Bioconductor package EBimage in R (Pau, Fuchs et al. 2010). Objects in both channels, DAPI (for Hoechst/DNA) and FITC (for Caspase 3/7), were segmented separately by adaptive thresholding and counted. A threshold for Caspase 3/7 positive objects was defined manually per cell line after comparing negative controls (DMSO) and positive controls (Staurosporine). By analyzing 17 additional object/nuclei features in the DNA channel (shape and intensity features) debris/fragmented nuclei were identified. To this end per cell line the distributions of the additional features between positive controls (Staurosporine) and negative controls (DMSO) were compared manually. Features that could differentiate between the conditions (e.g. a shift in the distribution of a feature measurement comparing DMSO with Staurosporine) where used to define the ‘debris’ population versus the population of ‘viable’ nuclei. The debris counts were subtracted from raw nuclei counts. The resulting nuclei number was used as measure of cell proliferation (‘cell count’).
(§3) The compound's effect on cell proliferation was calculated from the cell counts of the treatments relative to the cell counts of the negative control (DMSO), in FIG. 9 denoted as ‘Normalized cell count’ (=‘xnorm’) on the y-axis. Synergistic combinations were identified using the highest single agent model (HSA) as null hypothesis (Berenbaum 1989).

LoVo [2] = assay: as above; type: cell-based; details: Example 2, single agent, 96 h, cell count relative to DMSO
Description: as §1, §2, §3

RKO [3] = assay: as above; type: cell-based; details: 72 h, cell count relative to DMSO
Description: as §1, §2, §3

HCT-116 = assay: as above; type: cell-based; details: 72 h, cell count relative to DMSO
Description: as §1, §2, §3

GP2d [4] = assay: as above; type: cell-based; details: Example 2, single agent, 72 h, cell count relative to DMSO
Description: as §1, §2, §3

HCT-116 xenografts = assay: HCT-116 xenograft in nude mice, tumor volume; type: in vivo; details: for effect of sequential addition on tumor volume: day 19
Description: All animal experiments were done in strict adherence to the Swiss law for animal protection. Female Crl:NU(NCr)-Foxn1nu mice were purchased from Charles River Laboratories International Inc (Germany) and kept in a pathogen-controlled environment. Subcutaneous tumors of HCT-116 (KRAS mutant, PIK3CA mutant, p53 wild-type) were induced by concentrating 3 million cells in 100 μl of PBS and injecting them in the right flank of nude mice. The mice were randomly grouped, and treatment was started when the tumor size reached 50 to 250 mm3. Each cohort included 8 mice. Tumor sizes were monitored three times weekly, and volumes were calculated with the following formula: (mm3)=length×width2×0.5.
COMPOUND A was dissolved in 0.5% hydroxypropyl methylcellulose, COMPOUND B was dissolved in 1% carboxymethylcellulose containing 0.5% Tween-80% in distilled water (pH7.6-8.0), and COMPOUND C was dissolved in Microemulsion pre-concentrate 5. All drugs were dosed orally using 5-10 ml/kg. COMPOUND A was administered three times a week (3qw) at 100 mg/kg. COMPOUND B and COMPOUND C were administered daily (q24 h) at 0.3 and 100 mg/kg, respectively. The combination dosing schedule and dosage were the same as the single reagents.
Six treatment cohorts (G1-G6) were tested: • G1: vehicle (DMSO) • G2: COMPOUND C • G3: COMPOUND A=>after 9 days treatment COMPOUND C was added • G4: COMPOUND B=>after 9 days treatment COMPOUND C was added • G5: COMPOUND A+COMPOUND B=>after 9 days treatment COMPOUND C was added • G6: COMPOUND A+COMPOUND B+COMPOUND C
For each tumor at each time-point the size was normalized to the size before the start of the treatment to obtain the “% Change tumor volume” (FIG. 17-18, y-axis). For FIG. 17 at each time point the mean size of all tumors per cohort was calculated, and the error of the size using the standard error of the mean (SEM). For FIG. 18 p-values were calculated using a one-tailed t test.

COLO-678 = assay: Cell proliferation, cell count by microscopy (Example 1); type: cell-based; details: colo678, single agent, 96 h treatment, cell count relative to DMSO
Description: (§4) To test the effect of the combination of COMPOUND A or COMPOUND B with COMPOUND C on cell proliferation cells were plated in black 384-well microplates with clear bottom (Matrix/Thermo Scientific, Catalog number 4332) in 50 ul media per well at cell densities between 500 and 1250 cells/well (Table 1) and allowed to incubate at 37 degrees, 5% CO2 for 24 h. After 24 h one 384-well plate per cell line was prepared for cell counting by microscopy (see below) without receiving treatment (=‘baseline’). The other cell plates were treated using a HP D300 Digital Dispenser (Tecan) generating 6-point dose response curves with 2.5× dilution steps.
(§5) COMPOUND A was used over a final concentration range of 51 nM-5 uM, COMPOUND B over a final concentration range of 10 nM-1 uM, and COMPOUND C over a final concentration range of 1 nM-100 nM.
(§6) For the combinations of COMPOUND A or COMPOUND B with COMPOUND C the single agents were combined at 6 single agent doses generating a dose matrix of 6×6=36 combination treatments. Additionally, negative controls (DMSO=‘vehicle’) and positive controls (Staurosporine=killing cells, 7-point 1:2 dilution series for a dose range of 16 nm-1 uM) were transferred as treatment controls. Cells were treated for 72 h to 96 h depending on their doubling time (Table 1). At the end of the treatment cells were prepared for cell counting by microscopy. Cells were fixed and permeabilised for 45 minutes in 4% PFA (Electron Microscopy Sciences, Catalog number 15714), 0.12% TX-100 (Electron Microscopy Sciences, Catalog number 22140) in PBS (Boston Bioproducts, Catalog number BM-220). After washing cells three times with PBS their DNA was stained for 30 minutes with Hoechst 33342 (ThermoFisher, Catalog number H3570) at a final concentration of 4 μg/ml. Cells were washed three times with PBS and then plates were heat-sealed using a PlateLoc (Agilent Technologies) with aluminum seals (Agilent Technologies, Catalog number 06644-001) and stored at 4° C. until imaging. All cells per well/treatment were captured in a single image by fluorescence microscopy using an InCell Analyzer 2000 (GE Healthcare) equipped with a 4× objective and DAPI excitation/emission filters.
as §2
(§7) The compound's effect on cell proliferation was calculated from the cell counts of the treatments relative to the cell counts of the negative control (DMSO), in FIGS. 1 and 2 denoted as ‘Normalized cell count’ on the y-axis.

LS-180 [5] = assay: as above; type: cell-based; details: ls180, single agent, 72 h treatment, cell count relative to DMSO
Description: as §4, §5, §6, §2, §7

LoVo [6] = assay: as above; type: cell-based; details: single agent, 96 h treatment, cell count relative to DMSO
Description: as §4, §5, §6, §2, §7

RKO [7] = assay: as above; type: cell-based; details: single agent, 72 h treatment, cell count relative to DMSO
Description: as §4, §5, §6, §2, §7

GP2d [8] = assay: as above; type: cell-based; details: single agent, 72 h treatment, cell count relative to DMSO
Description: as §4, §5, §6, §2, §7

SW48 = assay: as above; type: cell-based; details: single agent, 96 h treatment, cell count relative to DMSO
Description: as §4, §5, §6, §2, §7

LIM2405 = assay: as above; type: cell-based; details: single agent, 72 h treatment, cell count relative to DMSO
Description: as §4, §5, §6, §2, §7

CC1(C)CCC(c2ccc(Cl)cc2)=C(CN2CCN(c3ccc(C(=O)NS(=O)(=O)c4ccc(N[C@H](CCN5CCOCC5)CSc5ccccc5)c(S(=O)(=O)C(F)(F)F)c4)cc3)CC2)C1 [COMPOUND C]
IC50 (LS-180 [1]; Example 2, single agent): > 10 µM
IC50 (LS-180 [1]; Example 3, single agent): > 10 µM
IC50 (LS-180 [1]; Example 4, single agent): > 10 µM
IC50 (LoVo [2]): > 10 µM
IC50 (RKO [3]; Example 2, single agent): > 10 µM
IC50 (RKO [3]; Example 3, single agent): > 10 µM
IC50 (RKO [3]; Example 4, single agent): > 10 µM
IC50 (HCT-116; Example 2, single agent): > 10 µM
IC50 (HCT-116; Example 3, single agent): > 10 µM
IC50 (HCT-116; Example 4, single agent): > 10 µM
IC50 (GP2d [4]): > 10 µM

CC(=O)Nc1cccc(-n2c(=O)n(C3CC3)c(=O)c3c(Nc4ccc(I)cc4F)n(C)c(=O)c(C)c32)c1 [trametinib, N-(3-{3-cyclopropyl-5-[(2-fluoro-4-iodophenyl)amino]-6,8-dimethyl-2,4,7-trioxo-3,4,6,7-tetrahydropyrido[4,3-d]pyrimidin-1(2H)-yl}phenyl)acetamide]
tumor response (% change tumor volume) (HCT-116 xenografts; nude mice, oral, COMPOUND A 100 mg/kg 3qw, trametinib 0.3 mg/kg q24h, ABT-263 100 mg/kg q24h, 9 days of treatment): progressive disease
IC75 (COLO-678): >0.1
IC75 (LS-180 [5]): 0.014
IC75 (LoVo [6]): 0.018
IC75 (RKO [7]): >0.1
IC75 (GP2d [8]): >0.1
IC75 (SW48): 0.003
IC75 (LIM2405): 0.008

CC1(C)CCC(c2ccc(Cl)cc2)=C(CN2CCN(c3ccc(C(=O)NS(=O)(=O)c4ccc(N[C@H](CCN5CCOCC5)CSc5ccccc5)c(S(=O)(=O)C(F)(F)F)c4)cc3)CC2)C1 [ABT-263]
effect of sequential addition on tumor volume (HCT-116 xenografts; ABT-263 100 mg/kg q24h added after 9 days to single agent COMPOUND A (G3)): no additional benefit
effect of sequential addition on tumor volume (HCT-116 xenografts; ABT-263 100 mg/kg q24h added after 9 days to single agent trametinib (G4)): stopped tumor progression
effect of sequential addition on tumor volume (HCT-116 xenografts; ABT-263 100 mg/kg q24h added after 9 days to the combination of COMPOUND A and trametinib (G5)): marked tumor regressions
